{"source": "paper PMC8073907", "about": "“Peptide targeting of lysophosphatidylinositol-sensing GPR55 for osteoclastogenesis tuning” (Cell Communication and Signaling : CCS, 2021)", "key": {"ssGPR55 wild-type": {"system": "ssGPR55 wild-type", "experiment": "GPR55-internalisation assay, wild-type (FACS)", "assay_type": "cell-based, human", "conditions": "10 µM soybean LPI", "procedure": "HeLa cells were plated at 1.5 × 10^5 cells/well in six-well plates in their growth medium without antibiotics. Twenty-four hours later, the cells were transfected with 2.5 µg/well pcDNA3.1, or the mutants ssGPR55-K80A, ssGPR55-Q87A, or 1.25 µg/well (complemented with 1.25 µg/well empty vector) ssGPR55, using Lipofectamine 2000, according to the manufacturer instructions. The different cDNA amounts were necessary to reach equivalent plasma-membrane expression of the receptors, as the mutants were expressed at lower levels, as verified by FACS analyses, and in line with previous reports. […]\nFor the GPR55-internalisation assay, after stimulation, the HeLa cells were washed twice with cold HBSS^++, stained while adhered with the monoclonal anti-HA antibody (1:1000) in PBS plus 3% BSA for 1 h on ice, washed three times with cold PBS, incubated with the Alexa488-tagged anti-mouse antibody (1:800) in PBS plus 3% BSA for 45 min on ice. […] The collected cells were centrifuged at 300×g, suspended in PBS plus 3% BSA, and analysed by FACS."}, "RAW264.7 cells": {"system": "RAW264.7 cells", "experiment": "RANKL-induced transcription of osteoclastogenesis markers in RAW264.7 cells (real-time PCR)", "assay_type": "cell-based, murine", "how_it_was_run": "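RAW264.7 cells in α-MEM/10% FBS were treated with 15–30 ng/mL RANKL, refreshed every 48 h, with or without GPR55 ligands (e.g. 0.5 µM ML-191, 30 µM O1918, 1 µM LPI) or 150 nM peptide-P1. Marker mRNA was quantified by SYBR Green real-time PCR normalised to β2-microglobulin; Gpr55 was knocked down by siRNA where applied.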"}, "[1]": {"system": "osteoclasts derived from RAW264.7 cells", "experiment": "Osteoclast functional assay (bone resorption on bovine cortical bone slices)", "assay_type": "cell-based, murine", "conditions": "15 ng/mL RANKL, 7 days", "procedure": "RAW264.7 cells were plated in differentiation medium at a density of 1250 cells/100 µL on 0.2-mm-thick bovine cortical bone slices (BoneSlices.com, Jelling, Denmark) in 96-well plates. Six hours later, 100 µL differentiation medium with RANKL (15 ng/mL, final concentration) was added, in the presence of a carrier or in combination with the GPR55 modulators. The media with the different compounds were replaced every 48 h, for a total of 7 days. At the end of this period, the cells were detached with a 10% bleach solution, and the resorption excavations were visualised by using Toluidine Blue staining (Sigma-Aldrich). Images of the resorption areas were obtained under the microscope (SW380T; Swift Optical Instruments, Inc., TX, USA) using the 10 × objective, and acquired with a digital camera (Swiftcam SC1003; Swift Optical Instruments, Inc.). The total eroded surface underwent blinded quantification using ImageJ (NIH), and was subdivided into pit and trench surfaces. Pits were characterised as round excavations with well-defined edges where the ratio between length and width was < 2.0. Trenches were defined as elongated excavations with well-defined edges whose length was at least twice the wide, and with clear signs of continued resorption. The prevalence of trenches was calculated as a proportion (%) of the trench surface relative to the total eroded surface."}}, "data": [{"substance": "lysophosphatidylinositol [LPI]", "values": [{"measurement": "time to plateau of LPI-induced internalisation", "setting": "ssGPR55 wild-type; overexpressed ssGPR55 in HeLa cells", "value": 10, "unit": "min"}, {"measurement": "reduction of cell-surface level of receptor", "setting": "ssGPR55 wild-type; ssGPR55 wild-type, HeLa, 15 min, three independent experiments", "value": 30, "unit": "%"}, {"measurement": "further stimulation of RANKL-induced Trap transcription", "setting": "RAW264.7 cells; 1 µM soybean LPI, 24 h", "value": "0.2 -fold"}, {"measurement": "increase in RANKL-induced Cathepsin-k mRNA", "setting": "RAW264.7 cells; 1 µM soybean LPI, 24 h", "value": "1.4 -fold"}, {"measurement": "further stimulation of RANKL-induced Ctr transcription", "setting": "RAW264.7 cells; 1 µM soybean LPI, 48 h", "value": "2.4 -fold"}, {"measurement": "further stimulation of RANKL-induced Nfatc1 transcription", "setting": "RAW264.7 cells; 1 µM soybean LPI, 48 h", "value": "1.1 -fold"}, {"measurement": "further stimulation of RANKL-induced Trap transcription", "setting": "RAW264.7 cells; 1 µM soybean LPI, 48 h", "value": "0.7 -fold"}, {"measurement": "increase in RANKL-induced Cathepsin-k mRNA", "setting": "RAW264.7 cells; 1 µM soybean LPI, 48 h", "value": "1.2 -fold"}, {"measurement": "further stimulation of RANKL-induced Ctr transcription", "setting": "RAW264.7 cells; 1 µM soybean LPI, 72 h", "value": "1.6 -fold"}, {"measurement": "further stimulation of RANKL-induced Trap transcription", "setting": "RAW264.7 cells; 1 µM soybean LPI, 72 h", "value": "0.7 -fold"}, {"measurement": "modulation of RANKL-induced Cathepsin-k transcription", "setting": "RAW264.7 cells; 1 µM soybean LPI, 72 h", "value": "no modulation"}, {"measurement": "effect on Mmp-9 transcription", "setting": "RAW264.7 cells; 1 µM soybean LPI, any of the times analysed", "value": "no effects on Mmp-9 transcription"}, {"measurement": "effect on osteoclastogenesis marker transcription after washout", "setting": "RAW264.7 cells; LPI washout after the initial 24 h, data not shown", "value": "did not produce any significant effects"}, {"measurement": "RANKL-induced transcription of Ctr, si-NT versus si-GPR55 cells", "setting": "RAW264.7 cells; RANKL 15 ng/mL, 72 h, 1 µM soybean LPI or 1 µM ML-184", "value": "similarly increased RANKL-induced transcription of Ctr only in precursor cells treated with non-targeting siRNAs, and not in those silenced for GPR55"}, {"measurement": "effect on relative trench contribution", "setting": "[1]; 0.5 µM ML-191 or 1 µM 18:0 LPI", "value": "did not affect the relative contributions of the trenches"}, {"measurement": "increase of total resorbing activity induced by RANKL", "setting": "[1]; 1 µM 18:0 LPI, versus RANKL + 0.004% faf-BSA", "value": 54, "unit": "%"}]}]}
